# In patent US12398111B2, “Triazine compounds and pharmaceutical use thereof” (Japan Tobacco Inc., priority 2014, dated 2025):
# Molecular target: T1, human mPGES-1 (Homo sapiens, UniProt O14684)
# T1 construct: made in house; host or cells: FreeStyle CHO-S cells (Chinese hamster ovary), transient transfection with pcDNA3.1(+)/human mPGES-1; microsome fraction used
# T1 sequence (O14684 1-152): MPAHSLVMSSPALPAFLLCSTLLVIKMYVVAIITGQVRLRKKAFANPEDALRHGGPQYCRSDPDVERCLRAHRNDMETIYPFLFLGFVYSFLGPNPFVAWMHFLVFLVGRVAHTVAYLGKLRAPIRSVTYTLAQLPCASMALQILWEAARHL
# Assay: Evaluation of human mPGES-1 enzyme inhibitory activity (PGE2 measured by HTRF, microsome fraction of CHO-S cells expressing human mPGES-1)
# Format: biochemical
# Conditions: IC50 value; microsome fraction of CHO-S cells expressing human mPGES-1, PGE2 by HTRF
# Summary of the method: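 Enzyme source: microsomes from CHO-S cells transfected with human mPGES-1 and cultured 48 hr, diluted to 5 μg/mL protein in reduced GSH (12.5 mmol/L KPB solution). Test articles were in 0.1 mol/L potassium phosphate pH 7.4, final DMSO 2% (v/v). PGE2 formed was quantified by HTRF.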
row,Compound,IC50
1,Cc1cccc(C)c1-c1nc(O)nc(-c2ccc(O[C@H](C)c3ccccc3)cc2)n1 [Example 2-44],563 nM
2,Oc1nc(-c2ccc(C(F)(F)F)cc2)nc(-c2c(Cl)cccc2OCc2ccccn2)n1 [Example 2-45],12 nM
3,Cc1cccc(C)c1-c1nc(O)nc(-c2ccc(OC3CCCCC3)cc2)n1 [Example 2-46],494 nM
4,Cc1cccc(C)c1-c1nc(O)nc(-c2ccc(OC3CCC(C)(C)CC3)cc2)n1 [Example 2-47],295 nM
5,Cc1cccc(C)c1-c1nc(O)nc(-c2ccc(Cl)c(OCc3ccccc3)c2)n1 [Example 2-48],19 nM
6,CCc1ccccc1COc1cccc(Cl)c1-c1nc(O)nc(-c2ccc(C(F)(F)F)cc2)n1 [Example 2-49],14 nM
7,Cc1cccc(C)c1-c1nc(O)nc(-c2ccc(OCC3CCCC3)cc2)n1 [Example 2-50],61 nM
8,Cc1cccc(C)c1-c1nc(O)nc(-c2ccc(OCC3CCC3)cc2)n1 [Example 2-51],90 nM
9,CCOc1cc(-c2nc(O)nc(-c3c(C)cccc3C)n2)ccc1Cl [Example 2-52],100 nM
10,Cc1ccccc1COc1cccc(Cl)c1-c1nc(O)nc(-c2ccc(C(F)(F)F)cc2)n1 [Example 2-53],11 nM
11,CCc1cc(-c2nc(O)nc(-c3c(C)cccc3C)n2)ccc1Cl [Example 2-54],170 nM
12,Cc1cccc(COc2cccc(Cl)c2-c2nc(O)nc(-c3ccc(C(F)(F)F)cc3)n2)c1 [Example 2-55],10 nM
13,Cc1ccc(COc2cccc(Cl)c2-c2nc(O)nc(-c3ccc(C(F)(F)F)cc3)n2)cc1 [Example 2-56],18 nM
14,Cc1cccc(C)c1-c1nc(O)nc(-c2ccc(OCC3CCCCCC3)cc2)n1 [Example 2-57],25 nM
15,Cc1cccc(C)c1-c1nc(O)nc(-c2ccc(OCC(C)(C)C)cc2)n1 [Example 2-58],145 nM
16,Cc1cccc(C)c1-c1nc(O)nc(-c2ccc(OCc3ccccc3)nc2)n1 [Example 2-59],95 nM
17,Oc1nc(-c2ccc(C(F)(F)F)cc2)nc(-c2c(Cl)cccc2OCc2cccnc2)n1 [Example 2-60],121 nM
18,Oc1nc(-c2ccc(C(F)(F)F)cc2)nc(-c2c(Cl)cccc2OCc2ccncc2)n1 [Example 2-61],92 nM
19,CC(C)(C)COc1ccc(-c2nc(O)nc(-c3c(Cl)cccc3OCc3ccccn3)n2)cc1 [Example 2-62],9.3 nM
20,C[C@@H](Oc1cccc(Cl)c1-c1nc(O)nc(-c2ccc(OCC(C)(C)C)cc2)n1)c1ccccn1 [Example 2-63],259 nM
21,C[C@H](Oc1cccc(Cl)c1-c1nc(O)nc(-c2ccc(OCC(C)(C)C)cc2)n1)c1ccccn1 [Example 2-64],12 nM
22,C[C@H](Oc1cccc(Cl)c1-c1nc(O)nc(-c2ccc(OCC(C)(C)C)cc2)n1)c1ccccc1 [Example 2-65],151 nM
23,CC(C)COc1ccc(-c2nc(O)nc(-c3c(Cl)cccc3OCc3ccccn3)n2)cc1 [Example 2-66],16 nM
24,CC(C)COc1ccc(-c2nc(O)nc(-c3c(Cl)cccc3O[C@@H](C)c3ccccn3)n2)cc1 [Example 2-67],27 nM

row,Compound,IC50
1,CC(C)(C)COc1ccc(-c2nc(O)nc(-c3c(Cl)cccc3OCc3ncccn3)n2)cc1 [Example 2-68],672 nM
2,CCCCCOc1ccc(-c2nc(O)nc(-c3c(C)cccc3C)n2)cc1 [Example 2-69],84 nM
3,CCCCOc1ccc(-c2nc(O)nc(-c3c(C)cccc3C)n2)cc1 [Example 2-70],158 nM
4,Cc1cccc(C)c1-c1nc(O)nc(-c2ccc(OCCC(C)C)cc2)n1 [Example 2-71],172 nM
5,Cc1cccnc1COc1cccc(Cl)c1-c1nc(O)nc(-c2ccc(OCC(C)C)cc2)n1 [Example 2-72],283 nM
6,CCC(CC)Oc1ccc(-c2nc(O)nc(-c3c(C)cccc3C)n2)cc1 [Example 2-73],402 nM
7,Cc1cccc(C)c1-c1nc(O)nc(-c2ccc(OCC3CC3)cc2)n1 [Example 2-74],424 nM
8,Oc1nc(-c2ccc(OCC3CCC3)cc2)nc(-c2c(Cl)cccc2OCc2ccccn2)n1 [Example 2-75],3.7 nM
9,Oc1nc(-c2ccc(C#CC3CCCCC3)cc2)nc(-c2c(Cl)cccc2OCc2ccccn2)n1 [Example 2-76],5.8 nM
10,Oc1nc(-c2ccc(OCC3CCCCC3)cc2)nc(-c2c(Cl)cccc2OCc2ccccn2)n1 [Example 2-77],3.7 nM
11,Oc1nc(-c2ccc(C#Cc3ccccc3)cc2)nc(-c2c(Cl)cccc2OCc2ccccn2)n1 [Example 2-80],1.6 nM
12,Oc1nc(-c2ccc(C#CC3CCCC3)cc2)nc(-c2c(Cl)cccc2OCc2ccccn2)n1 [Example 2-81],2.7 nM
13,Oc1nc(-c2ccc(C#CC3CC3)cc2)nc(-c2c(Cl)cccc2OCc2ccccn2)n1 [Example 2-82],1.7 nM
14,Oc1nc(-c2ccc(C#CC3CCCCC3)cc2)nc(-c2c(Cl)cccc2OCc2ccc(C(F)(F)F)cn2)n1 [Example 2-83],51 nM
15,CC1(C)CCC(Oc2ccc(-c3nc(O)nc(-c4c(Cl)cccc4OCc4ccccn4)n3)cc2)CC1 [Example 2-84],17 nM
16,C[C@H](Oc1cccc(Cl)c1-c1nc(O)nc(-c2ccc(C#Cc3ccccc3)cc2)n1)c1ccccn1 [Example 2-86],2.2 nM
17,Cc1cccc(COc2cccc(Cl)c2-c2nc(O)nc(-c3ccc(C#Cc4ccccc4)cc3)n2)n1 [Example 2-87],1.8 nM
18,N#Cc1cccc(OCc2ccccn2)c1-c1nc(O)nc(-c2ccc(C#Cc3ccccc3)cc2)n1 [Example 2-88],2 nM
19,Oc1nc(-c2ccc(OCC3CC3)cc2)nc(-c2c(Cl)cccc2OCc2ccccn2)n1 [Example 2-89],18 nM
20,CN(C)C(=O)COc1cccc(Cl)c1-c1nc(O)nc(-c2ccc(OCC3CC3)cc2)n1 [Example 2-90],2100 nM
21,Oc1nc(-c2ccc(C#CC3CCCC3)cc2)nc(-c2c(Cl)cccc2OCc2ccccn2)n1 [Example 2-91],1.6 nM
22,Oc1nc(-c2ccc(C#CC3CCCCC3)cc2)nc(-c2c(Cl)cccc2OCc2ccccn2)n1 [Example 2-92],4.4 nM
23,Oc1nc(-c2ccc(OCC3CC3)nc2)nc(-c2c(Cl)cccc2OCc2ccccc2)n1 [Example 2-93],38 nM
24,CC(C)(C)C#Cc1ccc(-c2nc(O)nc(-c3c(Cl)cccc3OCc3ccccn3)n2)cc1 [Example 2-94],4.1 nM

row,Compound,IC50
1,Oc1nc(-c2ccc(C#Cc3ccccc3)cc2)nc(-c2c(OCc3ccccn3)cccc2C(F)(F)F)n1 [Example 2-95],5 nM
2,Oc1nc(-c2ccc(C#Cc3ccccn3)cc2)nc(-c2c(Cl)cccc2OCc2ccccc2)n1 [Example 2-96],21 nM
3,Oc1nc(-c2ccc(C#Cc3ccccn3)cc2)nc(-c2c(Cl)cccc2OCc2ccccn2)n1 [Example 2-97],8.9 nM
4,Cc1cccc(COc2cccc(C(F)(F)F)c2-c2nc(O)nc(-c3ccc(C#Cc4ccccc4)nc3)n2)n1 [Example 2-99],1.7 nM
5,Cc1ccccc1C#Cc1ccc(-c2nc(O)nc(-c3c(OCc4ccccn4)cccc3C(F)(F)F)n2)cc1 [Example 2-100],5.6 nM
6,Cc1cccc(C#Cc2ccc(-c3nc(O)nc(-c4c(OCc5ccccn5)cccc4C(F)(F)F)n3)cc2)c1 [Example 2-101],6.5 nM
7,Cc1ccc(C#Cc2ccc(-c3nc(O)nc(-c4c(OCc5ccccn5)cccc4C(F)(F)F)n3)cc2)cc1 [Example 2-102],5.9 nM
8,Oc1nc(-c2ccc(C#Cc3ccccc3C(F)(F)F)cc2)nc(-c2c(OCc3ccccn3)cccc2C(F)(F)F)n1 [Example 2-103],10 nM
9,Oc1nc(-c2ccc(C#Cc3cccc(C(F)(F)F)c3)cc2)nc(-c2c(OCc3ccccn3)cccc2C(F)(F)F)n1 [Example 2-104],18 nM
10,Oc1nc(-c2ccc(C#Cc3ccc(C(F)(F)F)cc3)cc2)nc(-c2c(OCc3ccccn3)cccc2C(F)(F)F)n1 [Example 2-105],18 nM
11,Oc1nc(-c2ccc(C#Cc3ccccc3)c(F)c2)nc(-c2c(OCc3ccccn3)cccc2C(F)(F)F)n1 [Example 2-106],5 nM
12,Cc1cccc(COc2cccc(C(F)(F)F)c2-c2nc(O)nc(-c3ccc(C#Cc4ccccc4F)cc3)n2)n1 [Example 2-107],3.8 nM
13,Cc1cccc(COc2cccc(C(F)(F)F)c2-c2nc(O)nc(-c3ccc(C#Cc4ccccc4Cl)cc3)n2)n1 [Example 2-108],6.4 nM
14,COc1ccccc1C#Cc1ccc(-c2nc(O)nc(-c3c(OCc4cccc(C)n4)cccc3C(F)(F)F)n2)cc1 [Example 2-109],2.8 nM
15,Cc1cc(C)nc(COc2cccc(C(F)(F)F)c2-c2nc(O)nc(-c3ccc(C#Cc4ccccc4)cc3)n2)c1 [Example 2-110],7.4 nM
16,Oc1nc(-c2ccc(C#Cc3ccccc3)cc2)nc(-c2c(OCc3ncccc3F)cccc2C(F)(F)F)n1 [Example 2-111],4.4 nM
17,Oc1nc(-c2ccc(C#Cc3ccccc3)cc2)nc(-c2c(OCc3ccc(Cl)cn3)cccc2C(F)(F)F)n1 [Example 2-112],5.9 nM
18,Cc1ccnc(COc2cccc(C(F)(F)F)c2-c2nc(O)nc(-c3ccc(C#Cc4ccccc4)cc3)n2)c1 [Example 2-113],5.1 nM
19,Cc1ccc(COc2cccc(C(F)(F)F)c2-c2nc(O)nc(-c3ccc(C#Cc4ccccc4)cc3)n2)nc1 [Example 2-114],4.9 nM
20,Oc1nc(-c2ccc(C#Cc3ccccc3)cc2)nc(-c2c(OCc3ccc(F)cn3)cccc2C(F)(F)F)n1 [Example 2-115],3 nM
21,Cc1cccc(COc2cccc(C(F)(F)F)c2-c2nc(O)nc(-c3ccc(C#Cc4cccc(F)c4)cc3)n2)n1 [Example 2-116],5.5 nM
22,Cc1cccc(COc2cccc(C(F)(F)F)c2-c2nc(O)nc(-c3ccc(C#Cc4ccc(F)cc4)cc3)n2)n1 [Example 2-117],4.7 nM
23,COc1cccc(COc2cccc(C(F)(F)F)c2-c2nc(O)nc(-c3ccc(C#Cc4ccccc4)cc3)n2)n1 [Example 2-118],7.1 nM
